# Read-outs that look alike come from different tables or passages of the source. Marks after values point to notes of the source that are not given here. Bridge positions count the residues as written; N and C are the ends. Peptide text beside a SMILES is read from it.
# T1: CYP450 1A2 (Homo sapiens, UniProt P05177)
# T1 sequence (P05177 1-516): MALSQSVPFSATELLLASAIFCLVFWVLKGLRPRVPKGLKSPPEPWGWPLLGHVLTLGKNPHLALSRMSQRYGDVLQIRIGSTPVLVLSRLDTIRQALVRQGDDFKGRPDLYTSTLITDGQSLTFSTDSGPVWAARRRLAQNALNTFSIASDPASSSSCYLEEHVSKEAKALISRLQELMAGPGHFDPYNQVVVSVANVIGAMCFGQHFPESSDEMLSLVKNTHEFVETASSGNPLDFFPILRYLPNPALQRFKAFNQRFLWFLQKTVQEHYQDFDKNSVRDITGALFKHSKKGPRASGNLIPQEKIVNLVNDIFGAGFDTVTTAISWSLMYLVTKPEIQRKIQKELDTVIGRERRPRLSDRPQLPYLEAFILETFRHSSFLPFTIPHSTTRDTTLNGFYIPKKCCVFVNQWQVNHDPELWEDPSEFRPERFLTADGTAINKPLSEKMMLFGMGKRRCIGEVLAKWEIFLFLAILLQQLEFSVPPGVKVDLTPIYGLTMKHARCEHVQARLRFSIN
# B1: BMP-7: Bone Morphogenetic Protein-7, positive control in rat implant assay (protein, UniProt P18075 293-431, looked up)
# Bone morphogenetic protein 7: STGSKQRSQNRSKTPKNQEALRMANVAENSSSDQRQACKKHELYVSFRDLGWQDWIIAPEGYAAYYCEGECAFPLNSYMNATNHAIVQTLVHFINPETVPKPCCAPTQLNAISVLYFDDSSNVILKKYRNMVVRACGCH
# Columns and labels:
# [1] = test system: patients having major cardio-vascular surgery requiring the cardiopulmonary pump; conditions: ref Himmelfarb et al., 2018, cited from earlier work
# Off-target survey = conditions: 114 targets surveyed
# Excerpt: (§1) TABLE 2 THR-184 overview.
# wound healing = test system: wound healing
# Excerpt: as §1
# hemodynamics = test system: hemodynamics
# Excerpt: as §1
# bleeding time = test system: bleeding time
# Excerpt: as §1
# [2] = Stability of THR-184 in human plasma with and without ACE inhibitor; type: in vitro ADME; conditions: compound administered with an ACE inhibitor, read-out: serum half-life
# Excerpt: Protease degradation of drug candidates can shorten their in-plasma half-life to the point that therapeutic exposure is severely compromised resulting in loss of efficacy.
# [3] = test system: patients having major cardio-vascular surgery requiring the cardiopulmonary pump; test: Phase II clinical trial NCT01830920, AKI after cardio-vascular surgery with cardiopulmonary pump; type: in vivo, human; conditions: clinical trial pharmacokinetic data; large variability of C Max and AUC
# Excerpt: The objective of the Phase II clinical trial, NCT01830920, ([Thrasos Innovation, Inc, 2013]), was to establish the dose, safety, and preliminary efficacy of THR-184 in a targeted patient population having major cardio-vascular surgery requiring the use of the cardiopulmonary pump The primary outcome of this clinical trial was the proportion of patients who develop AKI according to the KDIGO criteria ([Kidney Disease: Improving Global Outcomes (KDIGO) Acute Kidney Injury Work Group, 2012]). […] Use of urinary creatinine is not part of the KDIGO AKI criteria, but rather it is the urinary output that is part of the AKI definition. […] The clinical trial included serum samples for the analysis of KIM-1 and NGAL as exploratory endpoints, but there are as yet no published results from those samples.
# SAE: number of Serious Adverse Events.
# cancer growth = test: Preclinical overview: cancer growth
# Excerpt: as §1
# CYP450 3A4 = CYP450 3A4 (Homo sapiens, UniProt P08684); test: CYP450 isoform effect; type: in vitro ADME
# Sequence of CYP450 3A4 (P08684 whole entry, canonical isoform): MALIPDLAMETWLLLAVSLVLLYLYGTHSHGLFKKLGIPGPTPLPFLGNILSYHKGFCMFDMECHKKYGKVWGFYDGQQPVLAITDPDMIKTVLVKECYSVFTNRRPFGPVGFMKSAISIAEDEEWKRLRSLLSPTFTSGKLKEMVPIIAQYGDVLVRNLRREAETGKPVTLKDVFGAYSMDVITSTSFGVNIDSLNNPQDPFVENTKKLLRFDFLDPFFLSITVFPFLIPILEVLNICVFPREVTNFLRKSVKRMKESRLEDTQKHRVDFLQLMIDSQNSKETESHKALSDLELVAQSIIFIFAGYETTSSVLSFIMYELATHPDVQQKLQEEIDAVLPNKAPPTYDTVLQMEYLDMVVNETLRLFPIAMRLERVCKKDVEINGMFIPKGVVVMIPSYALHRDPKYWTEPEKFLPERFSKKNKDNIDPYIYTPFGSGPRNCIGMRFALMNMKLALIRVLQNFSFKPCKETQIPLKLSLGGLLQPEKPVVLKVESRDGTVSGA
# Excerpt: as §1
# CYP450 2D6 = CYP450 2D6 (Homo sapiens, UniProt P10635); test: CYP450 isoform effect; type: in vitro ADME
# Sequence of CYP450 2D6 (P10635 whole entry, canonical isoform): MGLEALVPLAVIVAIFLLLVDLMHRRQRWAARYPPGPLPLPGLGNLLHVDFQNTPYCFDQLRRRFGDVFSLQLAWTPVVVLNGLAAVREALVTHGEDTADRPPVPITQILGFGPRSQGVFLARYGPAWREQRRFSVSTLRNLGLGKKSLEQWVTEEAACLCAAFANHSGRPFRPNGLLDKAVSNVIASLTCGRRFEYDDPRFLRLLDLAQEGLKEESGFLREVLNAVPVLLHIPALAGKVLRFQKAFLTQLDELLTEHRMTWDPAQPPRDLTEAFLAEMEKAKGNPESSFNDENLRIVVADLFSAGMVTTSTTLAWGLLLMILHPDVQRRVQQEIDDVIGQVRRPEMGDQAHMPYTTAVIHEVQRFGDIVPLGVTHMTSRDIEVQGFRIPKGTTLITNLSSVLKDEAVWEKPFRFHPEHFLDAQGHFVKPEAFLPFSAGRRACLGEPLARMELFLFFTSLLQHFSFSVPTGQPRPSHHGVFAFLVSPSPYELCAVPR
# Excerpt: as §1
# CYP450 2C19 = CYP450 2C19 (Homo sapiens, UniProt P33261); test: CYP450 isoform effect; type: in vitro ADME
# Sequence of CYP450 2C19 (P33261 whole entry, canonical isoform): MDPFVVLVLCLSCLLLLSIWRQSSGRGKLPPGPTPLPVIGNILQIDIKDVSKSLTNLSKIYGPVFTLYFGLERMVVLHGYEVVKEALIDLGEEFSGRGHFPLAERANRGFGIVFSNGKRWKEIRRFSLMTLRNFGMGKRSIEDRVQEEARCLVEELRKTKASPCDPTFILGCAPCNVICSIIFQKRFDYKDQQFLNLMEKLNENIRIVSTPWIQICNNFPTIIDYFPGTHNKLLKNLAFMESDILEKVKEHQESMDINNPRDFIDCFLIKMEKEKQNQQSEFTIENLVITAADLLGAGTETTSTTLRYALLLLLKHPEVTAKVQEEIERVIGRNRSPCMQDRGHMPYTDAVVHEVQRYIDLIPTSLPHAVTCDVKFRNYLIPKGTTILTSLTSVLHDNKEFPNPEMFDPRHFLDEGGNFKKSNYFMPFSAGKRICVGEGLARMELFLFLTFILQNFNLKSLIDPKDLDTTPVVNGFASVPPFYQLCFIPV
# Excerpt: as §1
# CYP450 2C9 = CYP450 2C9 (Homo sapiens, UniProt P11712); test: CYP450 isoform effect; type: in vitro ADME
# Sequence of CYP450 2C9 (P11712 whole entry, canonical isoform): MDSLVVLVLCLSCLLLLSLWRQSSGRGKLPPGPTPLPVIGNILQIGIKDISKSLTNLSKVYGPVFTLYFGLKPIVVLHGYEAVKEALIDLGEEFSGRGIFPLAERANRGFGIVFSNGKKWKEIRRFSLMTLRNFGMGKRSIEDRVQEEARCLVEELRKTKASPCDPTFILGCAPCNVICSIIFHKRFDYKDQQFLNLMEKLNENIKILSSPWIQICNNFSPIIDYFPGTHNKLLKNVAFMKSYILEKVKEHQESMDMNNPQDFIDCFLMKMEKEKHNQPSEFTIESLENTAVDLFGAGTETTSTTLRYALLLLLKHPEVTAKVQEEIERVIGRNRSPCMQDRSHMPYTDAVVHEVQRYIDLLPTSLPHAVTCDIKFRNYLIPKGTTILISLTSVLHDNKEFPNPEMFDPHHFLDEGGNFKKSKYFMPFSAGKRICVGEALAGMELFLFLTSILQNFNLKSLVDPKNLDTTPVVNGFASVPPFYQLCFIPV
# Excerpt: as §1
# [4] = test system: adult healthy male and female volunteers; conditions: ref Himmelfarb et al., 2018, cited from earlier work
# Protocol: In the second study, THR-P-428 (MAD), THR-184 was administered as a slow intravenous infusion in a total of 24 adult healthy male and female volunteers, once daily over five consecutive days. THR-184 or the placebo was administered on the morning after a 10-h overnight fast. The solution was administered by slow injection via an indwelling catheter, at an infusion rate of 1 ml/min over 60 min. Three dose levels were studied: 0.3 mg/kg, 1 mg/kg, and 3 mg/kg. Adverse events were recorded continuously during the study.
# [5] = cited from earlier work
# [6] = test system: adult healthy male and female volunteers; conditions: ref Himmelfarb et al., 2018, cited from earlier work; remark: listed apart in the source
# Protocol: In the first study, THR-P-427 (SAD), the drug (THR-184) was administered as slow intravenous infusions in a total of 40 adult healthy male and female volunteers. The study drug or placebo was administered once on the morning after a 10-h overnight fast. The solution was administered by slow injection via an indwelling catheter, at an infusion rate of 1 ml/min over 60 min. Five dose levels were studied: 0.3 mg/kg, 1 mg/kg, 3 mg/kg, 6 mg/kg and 10 mg/kg. Adverse events were recorded continuously during the study.
# CYP450 1A2 = target: T1, CYP450 1A2; type: in vitro ADME
# Excerpt: as §1
# ectopic bone formation = test: Rat implant assay of ectopic bone formation; type: in vivo; conditions: implanted in muscle pocket (Hydrogel or collagen carrier device), implants removed day 14, histology toluidine blue
# Protocol: FIGURE 2 Failure of BMP-7 mimetic (THR-123) to induce ectopic bone formation in rat implant assay: This assay is based on the ability of BMP-7 to induce ectopic bone formation in the rat and was carried out as described earlier (The Journal of Biological Chemistry, Vol. 267, pp. 20352-20362,1992) to determine in vivo efficacy of THR-123. Briefly, bovine bone matrix (collagen carrier)/BMP-7 or Hydrogel/BMP-7 or Hydrogel/THR-123, devices (all lyophilized) were implanted in muscle pocket. […] This work was supported by Thrasos Therapeutics.
# [7] = Arm 4 High Dose 0.46/0.02 mg/kg
# [8] = Arm 5 Highest Dose 0.46/0.46 mg/kg
# [9] = occurred equally in placebo and THR-184 treated subjects
molecule,measurement,setting,value
CC(C)C[C@@H]1NC(=O)[C@H](C(C)C)NC(=O)[C@H](CO)NC(=O)[C@H](CO)NC(=O)[C@H](CO)NC(=O)[C@H](CC(N)=O)NC(=O)[C@H](CC(=O)O)NC(=O)[C@H](Cc2ccc(O)cc2)NC(=O)[C@H](Cc2ccc(O)cc2)NC(=O)[C@@H](N)CSSC[C@@H](C(=O)N[C@@H](CCCCN)C(=O)N[C@@H](CCCNC(=N)N)C(=O)N[C@@H](Cc2ccc(O)cc2)C(=O)N[C@@H](CCCNC(=N)N)C(=O)N[C@@H](CO)C(=O)O)NC1=O [THR-184] (H-CYYDNSSSVLCKRYRS-OH; disulfide 1-11),Deaths,[1]; Arm 2 Low Dose 0.02/0.02 mg/kg,4 #
same,SAE > 1 (Serious Adverse Events),[1]; Arm 2 Low Dose 0.02/0.02 mg/kg,46.7%
same,Deaths,[1]; Arm 3 Mid Dose 0.12/0.02 mg/kg,5 #
same,SAE > 1 (Serious Adverse Events),[1]; Arm 3 Mid Dose 0.12/0.02 mg/kg,59.6%
same,Deaths,[1]; [7],4 #
same,SAE > 1 (Serious Adverse Events),[1]; [7],42.0%
same,Deaths,[1]; [8],5 #
same,SAE > 1 (Serious Adverse Events),[1]; [8],41.0%
same,off-target interactions,Off-target survey,Has no off-target interactions (114 targets surveyed)
same,wound healing,wound healing,Does not inhibit wound healing
same,hemodynamics,hemodynamics,Does not affect hemodynamics
same,bleeding time,bleeding time,Does not affect bleeding time
same,half-life,[2],1 h
same,relationship of dose to serum levels,[3],clear relationship of the dose to serum levels of the compound
same,cancer growth,cancer growth,Does not promote cancer growth
same,effect on CYP450 3A4,CYP450 3A4,"Has no effect on key CYP450 isoforms (1A2, 2C19, 2C9, 2D6, 3A4)"
same,effect on CYP450 2D6,CYP450 2D6,"Has no effect on key CYP450 isoforms (1A2, 2C19, 2C9, 2D6, 3A4)"
same,effect on CYP450 2C19,CYP450 2C19,"Has no effect on key CYP450 isoforms (1A2, 2C19, 2C9, 2D6, 3A4)"
same,effect on CYP450 2C9,CYP450 2C9,"Has no effect on key CYP450 isoforms (1A2, 2C19, 2C9, 2D6, 3A4)"
same,serious adverse events,"[4]; 60 min iv infusion once daily for five days, 0.3-3 mg/kg, healthy volunteers",no serious adverse events observed
same,most frequently observed adverse event,[4]; [9],somnolence
same,Human Plasma Stability: t1/2,[5],6 min
same,most frequently observed adverse event,[6]; [9],headache
same,serious adverse events,"[6]; single 60 min iv infusion, 0.3-10 mg/kg, healthy volunteers",no serious adverse events observed
same,effect on CYP450 1A2,CYP450 1A2,"Has no effect on key CYP450 isoforms (1A2, 2C19, 2C9, 2D6, 3A4)"
B1,ectopic bone formation,ectopic bone formation,induced bone formation
